For experiment [1], the system named is A2780cisR (cisplatin resistant ovarian cancer cell line). Description: In vitro chemosensitivity (MTT) assay, A2780cisR. The class given is cell-based, human. The note with it: 24 h exposure, 72 h recovery, mean ± SD. The protocol:
(§1) In vitro chemosensitivity tests were performed against HCT116 (colorectal cancer cell line), A2780 and A2780cisR (cisplatin sensitive and cisplatin resistant ovarian cancer cell lines, respectively). Cancer cell lines were routinely maintained as monolayer cultures in RPMI medium supplemented with 10% foetal calf serum, penicillin (100 I.U./ml) and streptomycin (100 μg/ml), sodium pyruvate (1 mM) and L-glutamine (2 mM). For chemosensitivity studies, cells were incubated in 96-well plates at a concentration of 7.5×10^3 cells per well and the plates were incubated for 24 hours at 37° C. and a 5% CO2 humidified atmosphere prior to drug exposure.
(§2) Complexes were dissolved in dimethylsulfoxide (DMSO) to provide stock solutions which were further diluted with media to provide a range of final concentrations. Drug-media solutions were added to cells (the final concentration of DMSO was less than 0.5% (v/v) in all cases) and incubated for 24 hours at 37° C. and 5% CO2 humidified atmosphere. […] A Thermo Scientific Multiskan EX microplate photometer was used to measure the absorbance in each well at 570 nm. Cell survival was determined as the absorbance of treated cells divided by the absorbance of controls and expressed as a percentage. The IC50 values were determined from plots of % survival against drug concentration. […]

The test system of experiment [2] is HCT116 (colorectal cancer cell line). Briefly: In vitro chemosensitivity (MTT) assay, HCT116. The class given is cell-based, human. The following applies: 24 h exposure, 72 h recovery, mean ± SD. How it is done: as §1, §2

SMILES strings stand for the structures.

One may read the IC50 as the concentration needed to halve the response being measured. A low value points to greater potency in that assay. As to `N.N.[Cl][Pt][Cl]` [cisplatin], the IC50 in experiment [1] was 11.9 ± 2.2 µM; in experiment [2] it was 59.8 ± 7.5 µM.

These data come from US20230090293A1, “ANTIBIOTICS” (ASTON UNIVERSITY, priority 2020, published 2023).
